Data as given in paper PMC5442318, “Hundreds of dual-stage antimalarial molecules discovered by a functional gametocyte screen” (Nature Communications, 2017).
Like-named read-outs stand apart in the source and are kept apart here.

Legend:
[1] = test system: P. falciparum stage V female gametocytes; assay: P. falciparum female gametocyte activation assay (Pf FGAA), 24 h or 48 h preincubation, Pfs25 expression readout; format: cell-based, Plasmodium falciparum NF54; parameters: key to Biological profile: 49 compounds that were only active with a 48 h exposure (designated as slow-acting); 29 compounds additionally showed activity with only 24 h exposure (designated as fast-acting); when the compounds were added 30 min after triggering gametocyte activation, 12 compounds prevented cell surface expression of Pfs25 (designated as gamete-targeting); conditions: for Pf FGAA classification: SLOW / FAST / GAMETE from activity at 48h, 24h, 0h incubation
Method in brief: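 Purified stage V gametocytes from P. falciparum NF54 gametocyte cultures were exposed to compounds for 24 h or 48 h at 37 °C under 3% O2/5% CO2, then activated by temperature drop plus xanthurenic acid. Activated females were stained with Cy3-anti-Pfs25 (0.5 μg ml^−1) for 24 h at 26 °C and counted by high-content imaging; pIC50 by nonlinear regression.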

[2] = test system: P. falciparum female gametes; assay: Pf FGAA with compounds added 30 min after triggering gametocyte activation (gamete-targeting); format: cell-based, Plasmodium falciparum NF54; conditions: 0h incubation time
[3] = test system: P. falciparum stages IV–V gametocytes; assay: Gametocytocidal ATP-depletion assay (gametocyte ATP bioluminescence); format: cell-based, Plasmodium falciparum; conditions: for inhibition at 2 µM: Plasmodium falciparum, mean
Method in brief: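 Purified stage IV–V gametocytes (12,500/well) incubated with compound for 48 h at 37 °C under 3% O2/5% CO2. ATP measured by BacTiter-Glo luminescence as a viability surrogate; hits tested at 2 μM single concentration.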

HepG2 cells = assay: HepG2 cytotoxicity assay; format: cell-based
Method in brief: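 After compound incubation, plates and CellTiter-Glo reagent were brought to room temperature for 30 min. The reagent was then added, and luminescence was read after a 10 min room-temperature stabilization.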

[4] = test system: P. falciparum asexual blood stages; conditions: cited from earlier work; for IC50: read-out: Pf Asexual blood stages XC50
[5] = 24h incubation time, read-out: Pf FGAA IC50 (µM) 24h
[6] = mean, read-out: Gametocytes mean Pf FGAA IC50
[7] = TCAMS data, ref 1 (Gamo et al., 2010)
[8] = TCAMS data, ref 1 (Gamo, F. J. et al., Nature 465, 305-310, 2010)
[9] = P. falciparum female gametocytes, mean, read-out: Gametocytes mean Pf FGAA IC50
[10] = TCAMS asexual blood stage data, ref 1 (Gamo, F. J. et al., Nature 465, 305-310, 2010)
[11] = Plasmodium falciparum, 24h incubation time, read-out: Pf FGAA IC50 (µM) 24h
[12] = Plasmodium falciparum, P. falciparum female gametocytes, mean, read-out: Gametocytes mean Pf FGAA IC50
[13] = HepG2 TOX50 versus Pf FGAA IC50
[14] = mean, P. falciparum female gametocyte activation assay, read-out: Gametocytes mean Pf FGAA IC50

Row | Structure (SMILES) | IC50 [1, 5] | IC50 [1, 6] | IC50 [2] | Pf FGAA classification [1] | Gametocytes mean ATP inhibition at 2µM (%) [3] | HepG2 cells mean TOX50 (HepG2 cells; mean) | IC50 [4, 7] | Pf Asexual stages XC50 [4, 8] | IC50 [1, 9] | Gametocytes mean ATP inhibition at 2µM [3] | HepG2 cells mean TOX50 (HepG2 cells; HepG2 cells; mean) | IC50 [4, 10] | also measured
1 | Cc1ccc(Cl)c2sc(N3CCN(C(=O)c4ccc([N+](=O)[O-])o4)CC3)nc12 [TCMDC-124311] | 1.5 µM | – | > 20 µM | FAST | – | – | – | 0.32 µM | 1.44 µM | -39.73% | 25.79 µM | 0.32 µM | –
2 | Cc1ccc(C)c2sc(N3CCN(C(=O)c4ccc([N+](=O)[O-])o4)CC3)nc12 [TCMDC-124315] | 2.82 µM | – | > 20 µM | SLOW | – | – | – | 0.82 µM | 1.12 µM | 3.06% | 37.65 µM | 0.82 µM | –
3 | Cc1cccc2nc(-c3ccc(-c4ccc(CNCc5ccc(CN)cc5)cc4)s3)[nH]c12.O=C(O)C(F)(F)F [TCMDC-132809] | 1.17 µM | – | 5.14 µM | FAST | – | – | – | 0.44 µM | 0.47 µM | 36.48% | 14.79 µM | 0.44 µM | –
4 | C=CCc1cccc(CN2CCC(c3cc(O)nc(-c4ccccn4)n3)CC2)c1O [TCMDC-124851] | – | – | – | FAST | – | – | – | 1.00 µM | – | – | 11.49 µM | 1.1 µM | IC50 [1, 11]: 0.71 µM; IC50 [1, 12]: 1.74 µM; IC50 ([2]; Plasmodium falciparum): 2.42 µM; inhibition at 2 µM [3]: 17.9%; Selectivity ratio (HepG2 cells; [13]): 6.59
5 | CNCC(C)(C)c1nc(-c2ccc(Cl)c(O)c2)c(-c2ccncc2)[nH]1.Cl [TCMDC-140762] | 1.06 µM | 0.88 µM | 0.61 µM | GAMETE | -1.34% | 13.52 µM | 0.74 µM | 0.74 µM | – | – | – | – | –
6 | CN1CCN(CCCNc2ncc3c(-c4ccc(NC(=O)Nc5cc(C(F)(F)F)ccc5F)c(F)c4)nn(C)c3n2)CC1.O=C(O)C(F)(F)F [TCMDC-141611] | 11.1 µM | – | 11.3 µM | SLOW | – | – | – | 0.86 µM | – | -15.14% | – | 0.86 µM | IC50 [1, 14]: 0.87 µM; HepG2 cells mean TOX50 (HepG2 cells; mean; HepG2 cells): 4.90 µM
7 | Clc1cc(Br)ccc1-c1ccc(CNCC2CCNCC2)o1 [TCMDC-124617] | – | – | – | SLOW | – | – | – | 1.51 µM | – | – | 4.37 µM | 1.51 µM | IC50 [1, 11]: > 20 µM; IC50 [1, 12]: 0.72 µM; IC50 ([2]; Plasmodium falciparum): > 20 µM; inhibition at 2 µM [3]: -8.62%; Selectivity ratio (HepG2 cells; [13]): 6.08
8 | O=C(NCC1CCN(Cc2cccc(C(F)(F)F)c2)C1)c1cc(-c2cccc(Cl)c2)cs1.O=C(O)C(F)(F)F (centres unmarked) [TCMDC-134485] | 12 µM | – | > 20 µM | SLOW | – | – | – | 0.80 µM | 0.89 µM | 2.16% | 16.03 µM | 0.8 µM | –
9 | CN1CCC=C(C(=O)NCC(C)(C)c2nc(-c3ccc(Cl)c(O)c3)c(-c3ccncc3)[nH]2)C1.Cl [TCMDC-140700] | 4.68 µM | 1.91 µM | 1.61 µM | GAMETE | -6.01% | 13.36 µM | 1 µM | 1.00 µM | – | – | – | – | –
10 | COc1cccc(CCNC(C)Cc2ccc(OCCCCOc3ccccc3)cc2)c1 (centres unmarked) [TCMDC-140020] | 3.72 µM | 1.51 µM | > 20 µM | SLOW | 8.01% | 1.46 µM | 0.74 µM | 0.74 µM | – | – | – | – | –
11 | CN1CCN(Cc2ccc(OCc3cccc(COc4ccc(CN5CCN(C)CC5)cc4I)c3)c(I)c2)CC1.Cl [TCMDC-137239] | 6.48 µM | 1.85 µM | 15.1 µM | SLOW | -13.43% | 5.01 µM | 1.01 µM | 1.01 µM | – | – | – | – | –
12 | O=C(NCC1CCN(Cc2cccc(C(F)(F)F)c2)C1)c1cc(-c2cccc(F)c2)cs1.O=C(O)C(F)(F)F (centres unmarked) [TCMDC-134484] | 2.82 µM | – | > 20 µM | SLOW | – | – | – | 1.18 µM | 2.26 µM | -3.56% | 18.87 µM | 1.18 µM | –
13 | CN(C)CCN1CCN(CCCN2c3ccccc3Sc3ccc(C(F)(F)F)cc32)CC1.Cl [TCMDC-142257] | 1.58 µM | – | > 20 µM | FAST | – | – | – | 0.76 µM | – | 23.41% | – | 0.76 µM | IC50 [1, 14]: 5.25 µM; HepG2 cells mean TOX50 (HepG2 cells; mean; HepG2 cells): 77.62 µM
14 | CN(C)CCCNCc1ccc(-c2ccc(C(F)(F)F)cc2)cc1 [TCMDC-140011] | – | – | – | FAST | – | 4.90 µM | 0.87 µM | 0.87 µM | – | – | – | – | IC50 [1, 11]: 1.87 µM; IC50 ([1]; Plasmodium falciparum, mean, read-out: Gametocytes mean Pf FGAA IC50): 1.68 µM; IC50 ([2]; Plasmodium falciparum): > 20 µM; inhibition at 2 µM [3]: 1.03%; Selectivity ratio (HepG2 cells; HepG2 TOX50 vs Pf FGAA IC50): 2.92
15 | CN1CCC(NCc2cccc(-c3ccc(S(=O)(=O)NCc4ccccc4)c(F)c3)c2)CC1.O=C(O)C(F)(F)F [TCMDC-132219] | 12.2 µM | – | > 20 µM | SLOW | – | – | – | 0.32 µM | 2.63 µM | -1.59% | 5.13 µM | 0.32 µM | –

The next lines start with results.

Row | IC50 [1, 5] | IC50 [1, 6] | IC50 [2] | Structure (SMILES) | Pf FGAA classification [1] | Gametocytes mean ATP inhibition at 2µM (%) [3] | HepG2 cells mean TOX50 (HepG2 cells; mean) | IC50 [4, 7] | Pf Asexual stages XC50 [4, 8] | IC50 [1, 9] | Gametocytes mean ATP inhibition at 2µM [3] | HepG2 cells mean TOX50 (HepG2 cells; HepG2 cells; mean) | IC50 [4, 10] | also measured
16 | 9.9 µM | 0.86 µM | > 20 µM | CC(Cc1ccc(NC(=O)c2ccc(CC(C)NCc3ccc(Cl)cc3)cc2)cc1)NCCc1cccc(Cl)c1 (centres unmarked) [TCMDC-139810] | SLOW | -5.12% | 4.03 µM | 0.45 µM | 0.45 µM | – | – | – | – | –
17 | 1.91 µM | – | 8.15 µM | N#Cc1ccc(Cn2ccc3c4c(N)nc(N)nc4ccc32)cc1 [TCMDC-137820] | FAST | -6.11% | <0.0017 µM | 0.003 µM | 0.003 µM | – | – | – | – | Biological profile ([1]; Pf FGAA with 48 h, 24 h or post-activation addition, active = IC50 below 2 μM): fast-acting; IC50 ([1]; stage V gametocytes, 48 h exposure, read-out: PfFGAA IC50): 1.06 µM; HepG2 cells TOX50 (HepG2 cells; HepG2 cells): <0.0017 µM
18 | 2.22 µM | 1.09 µM | > 20 µM | O=C(Nc1cc(Cl)c(Cl)cc1NC(=O)c1cccc(-c2ccccc2)c1O)c1cccc(-c2ccccc2)c1O [TCMDC-139548] | FAST | 18.16% | 3.09 µM | 0.51 µM | 0.51 µM | – | – | – | – | –
19 | 0.14 µM | 0.9 µM | 0.89 µM | N=C(N)Nc1nc(-c2ccc(NCc3ccc(CNc4cccc(-c5csc(NC(=N)N)n5)c4)cc3)cc2)cs1 [TCMDC-140699] | GAMETE | 23.62% | 4.79 µM | 0.31 µM | 0.31 µM | – | – | – | – | –
20 | 2.89 µM | – | > 20 µM | C[C@H](Cc1ccc(OCCCCCCOc2ccc(C[C@@H](C)N[C@H](C)c3ccccc3)cc2)cc1)NC[C@H](O)c1cccc(Cl)c1.Cl [TCMDC-131564] | SLOW | – | – | – | 0.24 µM | 0.72 µM | 38.50% | 4.28 µM | 0.24 µM | –
21 | 9.4 µM | 1.38 µM | > 20 µM | CCN(CC)CCN(Cc1ccc(-c2ccc(Cl)cc2)cc1)C(=O)Cn1cc(CN(C)C)c(=O)nc1SCc1ccc(F)cc1 [TCMDC-140406] | SLOW | -10.76% | 6.61 µM | 0.75 µM | 0.75 µM | – | – | – | – | –
